Patent US8802597B2, “Herbicidal pyrimidines” (E I du Pont de Nemours and Company, priority 2003, dated 2014)

What was measured:
Type in all cases: in vivo
[1] = system: Surinam grass (Brachiaria decumbens); assay: Test C pre/postemergence; conditions: for Surinam Grass plant response rating: scale 0 to 100 (0 no effect, 100 complete control)
From the text: (§1) Seeds or nutlets of plant species selected from bermudagrass (Cynodon dactylon), Surinam grass (Brachiaria decumbens), cocklebur (Xanthium strumarium), corn (Zea mays), crabgrass (Digitaria sanguinalis), woolly cupgrass (Eriochloa villosa), giant foxtail (Setaria faberii), goosegrass (Eleusine indica), johnsongrass (Sorghum halepense), kochia (Kochia scoparia), lambsquarters (Chenopodium album), morningglory (Ipomoea coccinea), eastern black nightshade (Solanum ptycanthum), yellow nutsedge (Cyperus esculentus), pigweed (Amaranthus retroflexus), common ragweed (Ambrosia elatior), soybean (Glycine max), common (oilseed) sunflower (Helianthus annuus), and velvetleaf (Abutilon theophrasti) were planted and treated preemergence with test chemicals formulated in a non-phytotoxic solvent mixture which included a surfactant.
(§2) At the same time, plants selected from these crop and weed species and also winter barley (Hordeum vulgare), blackgrass (Alopecurus myosuroides), canarygrass (Phalaris minor), chickweed (Stellaria media), downy brome (Bromus tectorum), green foxtail (Setaria viridis), Italian ryegrass (Lolium multiflorum), wheat (Triticum aestivum), wild oat (Avena fatua) and windgrass (Apera spica-venti) were treated with postemergence applications of some of the test chemicals formulated in the same manner. Plants ranged in height from 2 to 18 cm (1- to 4-leaf stage) for postemergence treatments. Plant species in the flooded paddy test consisted of rice (Oryza sativa), umbrella sedge (Cyperus difformis), duck salad (Heteranthera limosa) and barnyardgrass (Echinochloa crus-galli) grown to the 2-leaf stage for testing. Treated plants and controls were maintained in a greenhouse for 12 to 14 days, after which time all species were compared to controls and visually evaluated. Plant response ratings, summarized in Table C, are based on a scale of 0 to 100 where 0 is no effect and 100 is complete control. A dash (-) response means no test result.

[2] = system: crabgrass (Digitaria sanguinalis); assay: Test C pre/postemergence; conditions: for Crabgrass plant response rating: scale 0 to 100 (0 no effect, 100 complete control)
From the text: as §1, §2

[3] = system: yellow nutsedge (Cyperus esculentus); assay: Test C pre/postemergence; conditions: for Nutsedge, Yellow plant response rating: scale 0 to 100 (0 no effect, 100 complete control)
From the text: as §1, §2

[4] = system: giant foxtail (Setaria faberii); assay: Test C pre/postemergence; conditions: for Foxtail, Giant plant response rating: scale 0 to 100 (0 no effect, 100 complete control)
From the text: as §1, §2

[5] = system: chickweed (Stellaria media); assay: Test C postemergence; conditions: for Chickweed plant response rating: 62 g ai/ha, scale 0 to 100 (0 no effect, 100 complete control); for Plant response rating, Chickweed: scale 0 to 100
In short: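 Greenhouse herbicide screen, visual readout. Compound in solvent/surfactant applied preemergence at planting or postemergence to 1- to 4-leaf plants; assessed at 12–14 days on a 0–100 control scale.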

[6] = Postemergence, 250 g ai/ha, scale 0 to 100
[7] = Postemergence, 500 g ai/ha, scale 0 to 100
[8] = Preemergence, 62 g ai/ha, scale 0 to 100, 0 no effect, 100 complete control
[9] = Preemergence, 125 g ai/ha, scale 0 to 100
[10] = Preemergence, 250 g ai/ha, scale 0 to 100
[11] = Preemergence, 500 g ai/ha, scale 0 to 100
[12] = Preemergence, 31 g ai/ha, scale 0 to 100, 0 no effect, 100 complete control
[13] = Preemergence, 16 g ai/ha, scale 0 to 100, 0 no effect, 100 complete control

Row | Structure (SMILES) | Surinam Grass plant response rating ([1]; Postemergence, 62 g ai/ha) | Surinam Grass plant response rating ([1]; Postemergence, 125 g ai/ha) | Plant response rating, Surinam Grass [1, 6] | Plant response rating, Surinam Grass [1, 8] | Plant response rating, Surinam Grass [1, 9] | Plant response rating, Surinam Grass [1, 10] | Crabgrass plant response rating ([2]; Postemergence, 62 g ai/ha) | Crabgrass plant response rating ([2]; Postemergence, 125 g ai/ha) | Plant response rating, Crabgrass [2, 8] | Plant response rating, Crabgrass [2, 9] | Nutsedge, Yellow plant response rating ([3]; Postemergence, 62 g ai/ha) | Nutsedge, Yellow plant response rating ([3]; Postemergence, 125 g ai/ha) | Plant response rating, Nutsedge, Yellow [3, 8] | Plant response rating, Nutsedge, Yellow [3, 9] | Foxtail, Giant plant response rating ([4]; Postemergence, 62 g ai/ha) | Foxtail, Giant plant response rating ([4]; Postemergence, 125 g ai/ha) | Plant response rating, Foxtail, Giant [4, 8] | Plant response rating, Foxtail, Giant [4, 9] | Chickweed plant response rating [5] | Plant response rating, Chickweed ([5]; 125 g ai/ha) | also measured
1 | CCCOC(=O)c1nc(C2CC2)nc(N)c1Br [Compound 15] | 0 | 20 | 55 | 15 | 65 | 75 | 15 | 45 | 0 | 95 | 0 | 0 | 0 | 0 | 45 | 60 | 0 | 0 | 20 | 50 | Plant response rating, Surinam Grass [1, 7]: 65; Plant response rating, Surinam Grass [1, 11]: 95; Plant response rating, Crabgrass [2, 6]: 65; Plant response rating, Crabgrass [2, 7]: 80; Plant response rating, Crabgrass [2, 10]: 95; Plant response rating, Crabgrass [2, 11]: 100; Plant response rating, Nutsedge, Yellow [3, 6]: 0; Plant response rating, Nutsedge, Yellow [3, 7]: 0; Plant response rating, Nutsedge, Yellow [3, 10]: 0; Plant response rating, Nutsedge, Yellow [3, 11]: 20; Plant response rating, Foxtail, Giant [4, 6]: 65; Plant response rating, Foxtail, Giant [4, 7]: 70; Plant response rating, Foxtail, Giant [4, 10]: 65; Plant response rating, Foxtail, Giant [4, 11]: 80; Plant response rating, Chickweed ([5]; 250 g ai/ha): 65; Plant response rating, Chickweed ([5]; 500 g ai/ha): 85
2 | CCCCOC(=O)c1nc(C2CC2)nc(N)c1Br [Compound 16] | 0 | 25 | 55 | 0 | 15 | 80 | 15 | 45 | 0 | 65 | 0 | 0 | 0 | 0 | 20 | 55 | 0 | 0 | 0 | 20 | Plant response rating (scale of 0 to 100), Surinam Grass ([1]; Postemergence, 31 g ai/ha): 0; Plant response rating, Surinam Grass [1, 12]: 0; Plant response rating (scale of 0 to 100), Crabgrass ([2]; Postemergence, 31 g ai/ha): 0; Plant response rating, Crabgrass [2, 6]: 75; Plant response rating, Crabgrass [2, 12]: 0; Plant response rating, Crabgrass [2, 10]: 95; Plant response rating (scale of 0 to 100), Nutsedge, Yellow ([3]; Postemergence, 31 g ai/ha): 0; Plant response rating, Nutsedge, Yellow [3, 6]: 0; Plant response rating, Nutsedge, Yellow [3, 12]: 0; Plant response rating, Nutsedge, Yellow [3, 10]: 0; Plant response rating (scale of 0 to 100), Foxtail, Giant ([4]; Postemergence, 31 g ai/ha): 0; Plant response rating, Foxtail, Giant [4, 6]: 65; Plant response rating, Foxtail, Giant [4, 12]: 0; Plant response rating, Foxtail, Giant [4, 10]: 75; Plant response rating (scale of 0 to 100), Chickweed ([5]; 31 g ai/ha): 0; Plant response rating, Chickweed ([5]; 250 g ai/ha): 35
3 | CC(C)COC(=O)c1nc(C2CC2)nc(N)c1Br [Compound 17] | 0 | 0 | 0 | 0 | 0 | 0 | 0 | 20 | 0 | 20 | 0 | 0 | 0 | 0 | 0 | 0 | 0 | 20 | 0 | 55 | Plant response rating (scale of 0 to 100), Surinam Grass ([1]; Postemergence, 31 g ai/ha): 0; Plant response rating, Surinam Grass [1, 12]: 0; Plant response rating (scale of 0 to 100), Crabgrass ([2]; Postemergence, 31 g ai/ha): 0; Plant response rating, Crabgrass [2, 6]: 65; Plant response rating, Crabgrass [2, 12]: 0; Plant response rating, Crabgrass [2, 10]: 80; Plant response rating (scale of 0 to 100), Nutsedge, Yellow ([3]; Postemergence, 31 g ai/ha): 0; Plant response rating, Nutsedge, Yellow [3, 6]: 0; Plant response rating, Nutsedge, Yellow [3, 12]: 0; Plant response rating, Nutsedge, Yellow [3, 10]: 0; Plant response rating (scale of 0 to 100), Foxtail, Giant ([4]; Postemergence, 31 g ai/ha): 0; Plant response rating, Foxtail, Giant [4, 6]: 35; Plant response rating, Foxtail, Giant [4, 12]: 0; Plant response rating, Foxtail, Giant [4, 10]: 75; Plant response rating (scale of 0 to 100), Chickweed ([5]; 31 g ai/ha): 0; Plant response rating, Chickweed ([5]; 250 g ai/ha): 85
4 | COC(=O)c1nc(C2CC2)nc(N=CN(C)C)c1Br [Compound 19] | 45 | – | – | 0 | 10 | – | 70 | 70 | 0 | 0 | 0 | 0 | 0 | 0 | 40 | 55 | 0 | 0 | 5 | 5 | Plant response rating (scale of 0 to 100), Surinam Grass ([1]; Postemergence, 16 g ai/ha): 0; Plant response rating (scale of 0 to 100), Surinam Grass ([1]; Postemergence, 31 g ai/ha): 25; Plant response rating, Surinam Grass [1, 13]: 0; Plant response rating (scale of 0 to 100), Crabgrass ([2]; Postemergence, 16 g ai/ha): 20; Plant response rating (scale of 0 to 100), Crabgrass ([2]; Postemergence, 31 g ai/ha): 40; Plant response rating, Crabgrass [2, 13]: 0; Plant response rating, Crabgrass [2, 12]: 0; Plant response rating (scale of 0 to 100), Nutsedge, Yellow ([3]; Postemergence, 16 g ai/ha): 0; Plant response rating (scale of 0 to 100), Nutsedge, Yellow ([3]; Postemergence, 31 g ai/ha): 0; Plant response rating, Nutsedge, Yellow [3, 13]: 0; Plant response rating, Nutsedge, Yellow [3, 12]: 0; Plant response rating (scale of 0 to 100), Foxtail, Giant ([4]; Postemergence, 16 g ai/ha): 0; Plant response rating (scale of 0 to 100), Foxtail, Giant ([4]; Postemergence, 31 g ai/ha): 5; Plant response rating, Foxtail, Giant [4, 13]: 0; Plant response rating, Foxtail, Giant [4, 12]: 0; Plant response rating (scale of 0 to 100), Chickweed ([5]; 16 g ai/ha): 0; Plant response rating (scale of 0 to 100), Chickweed ([5]; 31 g ai/ha): 0
